{"source": "patent US20220400729A1", "about": "“SYNERGISTIC COMBINATION OF BUTYRIC-ACID-PRODUCING PREBIOTICS AND PROBIOTICS” (INNER MONGOLIA YILI INDUSTRIAL GROUP CO., LTD, priority 2019, published 2022)", "system": "Bifidobacterium lactis HNO19", "experiment": "Growth test of Bifidobacterium lactis HNO19: organic acids in culture broth by HPLC", "assay_type": "cell-based", "conditions": "HNO19 in MRS+0.05% cysteine medium with 1% carbon source, HPLC at 12 hours", "protocol": "Bifidobacterium lactis HNO19 was purchased from Danisco. The strain was cultured in de Man Rogosa Sharpe (MRS) broth (Difco, Detroit, Md.) supplemented with 0.5 g/LL-cysteine and incubated for 24 h at 37° C. under anaerobic conditions. […] After the second passage, the culture was prepared for use as inoculum for the growth tests described below. Various carbon source stock solutions were sterilized by passing through 0.22 micron filters and used at 1% final concentration. […] The contents of lactic acid, acetic acid, propionic acid and butyric acid in the above-mentioned various combined culture broths were measured by high performance liquid chromatography (HPLC) at 12 hours."}
{"smiles": "OC[C@H]1O[C@@H](O[C@@H]2[C@@H](CO)O[C@](O)(CO)[C@H]2O)[C@H](O)[C@@H](O)[C@H]1O", "note": "[LOS, 4-O-β-D-galactopyranosyl-4-D-fructose]", "values": [{"measurement": "Contents of organic acids in the culture medium: Acetic acid", "result": "0.238 ± 0.002"}, {"measurement": "Contents of organic acids in the culture medium: Lactic acid", "result": "0.034 ± 0.002"}, {"measurement": "Contents of organic acids in the culture medium: Total amount of organic acid", "result": "0.272 ± 0.004"}]}
